This is an account of results in patent publication US10912786B2, “Silyl monomers capable of multimerizing in an aqueous solution, and methods of using same” (Cornell University, priority 2011, dated 2021).

For orientation: IC50 means the point on the concentration scale where inhibition reaches its midpoint.

In one series the target is T1, recombinant human tryptase, beta, from lung (Homo sapiens, UniProt P20231).
T1 construct: purchased Promega or Enzo Life Sciences G5631 or BML-SE418
T1 sequence (P20231 31-275): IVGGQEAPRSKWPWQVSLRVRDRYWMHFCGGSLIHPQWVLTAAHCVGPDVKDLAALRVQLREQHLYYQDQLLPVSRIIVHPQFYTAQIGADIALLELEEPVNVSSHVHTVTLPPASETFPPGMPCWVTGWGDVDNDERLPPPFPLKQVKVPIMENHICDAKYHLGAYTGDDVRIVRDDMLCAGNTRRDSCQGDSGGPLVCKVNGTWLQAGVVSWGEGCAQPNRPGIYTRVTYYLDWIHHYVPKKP
Put plainly: Evaluation of inhibition of tryptase activity (Boc-Gln-Ala-Arg-AMC fluorescence). Format: biochemical. Conditions: exemplary silyl monomers; 1 nM tryptase; read-out: IC50 range. The method, then:
Stock solutions of recombinant human tryptase, beta, from lung (Promega: catalog number G5631, or Enzo Life Sciences: catalog number BML-SE418) were made at 30 μM, in solution with 50 μM heparin sulfate and 500 mM NaCl. Multimer tryptase inhibitor stock solutions were made at 50 mM in DMSO. Drug plates were made at 5× the final concentration in assay buffer (50 mM HEPES, 150 mM NaCl, 100 μM EDTA, pH 7.4, 0.02% Tween-20). A final concentration of 1 nM tryptase was used. When required, drugs were diluted in assay buffer immediately before use in 10-fold serial dilutions. […] The release of fluorescent AMC was immediately measured every 60 seconds over 30-60 minutes at an excitation wavelength of 367 nm, monitoring emission at 468 nm on a Spectramax M5 (Molecular Devices) microplate reader. The Softmax Pro (Molecular Devices) and Graphpad prism software were used to determine Vmax, and concentration-response curve IC50s, respectively. As indicated below, IC50 ranges are provided for various exemplary monomers.
With `C[Si](C)(O)c1cccc(-c2cccc(C(=O)N3CCC(c4cccc(CN)c4)CC3)c2)c1` [T35 Silyl], the IC50 was in the range of 10000 to 65000 nM. Same read-out and setting: for `C[Si](C)(O)c1ccc2cccc(C(=O)N3CCC(c4cccc(CN)c4)CC3)c2c1` [Target T11SILYL] the value was 0.1 to 1000 nM; for `C[Si](C)(O)c1cccc2[nH]c(C(=O)N3CCC(c4cccc(CN)c4)CC3)cc12` [Target T32Silyl], 10000 to 65000 nM; for `C[Si](C)(O[Si](C)(C)c1cccc2sc(C(=O)N3CCC(c4cccc(CN)c4)CC3)cc12)c1cccc2sc(C(=O)N3CCC(c4cccc(CN)c4)CC3)cc12` [Target T46], 0.1 to 1000 nM. Same read-out and setting: for `C[Si](C)(O[Si](C)(C)c1cccc(CC(=O)N2CCC(c3cccc(CN)c3)CC2)c1)c1cccc(CC(=O)N2CCC(c3cccc(CN)c3)CC2)c1` [Target T47] the value was 0.1 to 1000 nM; for `C[Si](C)(/C=C/c1cccc(CC(=O)N2CCC(c3cccc(CN)c3)CC2)c1)O[Si](C)(C)/C=C/c1cccc(CC(=O)N2CCC(c3cccc(CN)c3)CC2)c1` [Target T47vinyl], 1000 to 10000 nM; for `C[Si](C)(O[Si](C)(C)c1ccc(CC(=O)N2CCC(c3cccc(CN)c3)CC2)cc1)c1ccc(CC(=O)N2CCC(c3cccc(CN)c3)CC2)cc1` [Target T48], 1000 to 10000 nM. `C[Si](C)(O[Si](C)(C)c1cc2c(C(=O)N3CCC(c4cccc(CN)c4)CC3)cccc2s1)c1cc2c(C(=O)N3CCC(c4cccc(CN)c4)CC3)cccc2s1` [Target T49]: the IC50 was 0.1 to 1000 nM.

As to `C[Si](C)(O)c1cccc2ccc(C(=O)N3CCC4(CC3)COc3ccc(CN)cc34)cc12` [Target T52SPIRO], the IC50 was in the range of 0.1 to 1000 nM.

Take `C[Si](C)(O)c1cccc2ccc(C(=O)N3CCC(c4cccc(CN)c4)CC3)cc12` [Target T52]: the IC50 was 0.1 to 1000 nM. On the same count and under the same terms, for `C[Si](C)(O)c1cccc2cc(C(=O)N3CCC(c4cc(CN)ccc4F)CC3)ccc12` [Target T120F] the value was 0.1 to 1000 nM; for `C[Si](C)(O)Cc1cccc(C(=O)N2CCC(c3cccc(CN)c3)CC2)c1` [Target T122], 1000 to 10000 nM; for `C[Si](C)(O)c1cccc(C(=O)N2CCC3(CC2)COc2ccc(CN)cc23)c1` [Target T129SPIRO], 0.1 to 1000 nM.

For the molecule `CSc1cc(C(=O)N2CCC(c3cccc(CN)c3)CC2)cc([Si](C)(C)O)c1` [Target T129Smethyl], the half-maximal inhibitory concentration (IC50) lay within 0.1 to 1000 nM. Take `C[Si](C)(O)c1cccc(C(=O)N2CCC(c3cccc(CN)c3)CC2)c1` [Target T129]: the IC50 was in the range of 0.1 to 1000 nM. For `C[Si](C)(O)c1ccc(C(=O)N2CCC(c3cccc(CN)c3)CC2)cc1` [Target T130], the half-inhibitory concentration (IC50) was in the range of 0.1 to 1000 nM.

In the case of `C[Si](C)(O)COc1ccc(C(=O)N2CCC(c3cccc(CN)c3)CC2)cc1` [Target T137, (4-(3-(aminomethyl)phenyl)piperidin-1-yl)(4-((hydroxydimethylsilyl)methoxy)-phenyl)methanone], the 50% inhibitory concentration (IC50) lay within 0.1 to 1000 nM. With `C[Si](C)(O)COc1cccc(C(=O)N2CCC(c3cccc(CN)c3)CC2)c1` [Target T138, (4-(3-(aminomethyl)phenyl)-piperidin-1-yl)(3-((hydroxydimethylsilyl)-methoxy)phenyl)methanone], the half-maximal inhibitory concentration (IC50) lay within 0.1 to 1000 nM. For `C[Si](C)(O)c1coc2ccc(C(=O)N3CCC(c4cccc(CN)c4)CC3)cc12` [Target T148], the concentration for half-maximal inhibition (IC50) is 0.1 to 1000 nM. Regarding `C[Si](C)(O)c1csc2ccc(C(=O)N3CCC(c4cccc(CN)c4)CC3)cc12` [Target T149], the IC50 lay within 1000 to 10000 nM. `Cn1cc(C(=O)N2CCC(c3cccc(CN)c3)CC2)c2ccc([Si](C)(C)O)cc21` [Target T152NMethyl]: the IC50 lay in the range of 10000 to 65000 nM.

Take `C[Si](C)(O)c1ccc2c(C(=O)N3CCC(c4cccc(CN)c4)CC3)c[nH]c2c1` [Target T152]: the IC50 fell in the range of 10000 to 65000 nM.

Test system in the next series: not listed separately
The series is described as follows: Hydrolysis of disiloxane to silanol followed by NMR. The class given is physicochemical. Conditions: expected from the effect of alkyl group size on silyl ether hydrolysis. From the text: Without wishing to be bound by any theory, the estimated half-life for hydrolysis of the disiloxane depicted here:
[drawing 18] is 15 days based at pH5 in 90% DMSO/10% water at room temperature based upon NMR experiments. […] Thus in certain aqueous situations, the hydrolysis of the dimeric disiloxane to monomeric silanol may be essentially irreversible on the timescale relevant for the biological functions they are modulating.
Turning to `CC[Si](CC)(O[Si](CC)(CC)c1ccccc1)c1ccccc1` [diphenyltetraethyldisiloxane], the “half-life of hydrolysis relative to the depicted disiloxane” value is recorded as “more than ten fold longer”.
